Values after ≈ are worked out from the molar mass of the structure shown. Read-outs that look alike come from different tables or passages of the source.
System: P388 lymphocytic leukemia (PS System) cell line
Test: P388 lymphocytic leukemia in vitro cell line growth inhibition (PS bioassay)
Format: cell-based, murine
Experimental: Because of the dolastatin's potency, the sea hare seems to require only vanishingly small quantities (about 1 mg each from 100 kg), making isolation and structural elucidation of these peptides exceptionally challenging. Later another substance was isolated and determined to be a unique linear pentapeptide and was denominated "dolastatin 10".

Work on C/C=C1/NC(=O)C(NC(=O)C(NC(=O)C(CO)OC)C(C)C)C(C)OC(=O)C(C(C)C)NC(=O)C(Cc2ccccc2)N(C)C(=O)C(Cc2ccccc2)N2C(=O)C(CCC2O)NC1=O (centres unmarked) [dolastatin 13] yielded an ED50 of 1.3 ng/mL (≈ 1.43 nM) and an ED50 (listed as Dolastatin 13) of 13 ng/mL (≈ 14.3 nM).
